Measured values taken from PubChem BioAssay AID743349 (Broad Institute, 2014).
Calls of active or inactive are those of the source. No rule for the calls is given here.

system: M. tuberculosis wild type plus biotin, growth inhibition; test: growth inhibition of wild-type M. tuberculosis, plus biotin, BioA project, dry powder (AID 743349)

Compound	IC90
CN1c2ccc(-c3ccc(F)cc3)cc2[C@H]2[C@H](CCN2C(=O)Nc2cc(F)ccc2F)[C@H]1CO	> 50 µM (inactive)
CNC(=O)c1ccc(N2CCN(C(=O)c3ccc4c(c3)OCO4)CC2)cc1	> 50 µM (inactive)
CC(C)NC(=O)N1CC[C@@H]2[C@@H](CO)N(C)c3ccc(-c4cccc(F)c4)cc3[C@@H]21	> 50 µM (inactive)
CC(=O)c1ccc(NCCNC(=O)c2ccc3c(c2)OCO3)cc1	> 50 µM (inactive)
CN1c2ccc(-c3cccc(F)c3)cc2[C@H]2[C@H](CCN2C(=O)c2ccc3c(c2)OCO3)[C@@H]1CO	> 50 µM (inactive)
CCCNC(=O)N1CC[C@@H]2[C@@H](CO)N(C)c3ccc(-c4ccc(F)cc4)cc3[C@@H]21	> 50 µM (inactive)
COc1ccc(NC(=O)N2CC[C@@H]3[C@@H](CO)N(C)c4ccc(-c5ccc(F)cc5)cc4[C@@H]32)cc1	> 50 µM (inactive)
CN1c2ccc(-c3cccc(F)c3)cc2[C@H]2[C@H](CCN2C(=O)CCCCCCN)[C@H]1CO	> 50 µM (inactive)
CN1c2ccc(-c3cccc(F)c3)cc2[C@H]2[C@H](CCN2C(=O)Cc2ccccc2)[C@H]1CO	> 50 µM (inactive)
COc1ccccc1NC(=O)N1CC[C@@H]2[C@@H](CO)N(C)c3ccc(-c4ccc(F)cc4)cc3[C@@H]21	> 50 µM (inactive)
CCC(=O)N1CC[C@@H]2[C@@H](CO)N(C)c3ccc(-c4ccc(F)cc4)cc3[C@@H]21	> 50 µM (inactive)
COc1ccc(NC(=O)N2CC[C@@H]3[C@@H](CO)N(C)c4ccc(-c5cccc(F)c5)cc4[C@@H]32)cc1	> 50 µM (inactive)
COc1cccc(NC(=O)N2CC[C@@H]3[C@@H](CO)N(C)c4ccc(-c5cccc(F)c5)cc4[C@@H]32)c1	> 50 µM (inactive)
CN(C)C(=O)c1ccc(N2CCN(C(=O)c3ccc4c(c3)OCO4)CC2)cc1	> 50 µM (inactive)
COC(=O)CCCCCCC(=O)N1CC[C@@H]2[C@@H](CO)N(C)c3ccc(-c4cccc(F)c4)cc3[C@@H]21	> 50 µM (inactive)
CC(=O)c1ccc(N2CC3(CN(C(=O)c4ccc5c(c4)OCO5)C3)C2)cc1	> 50 µM (inactive)
CN1c2ccc(-c3ccc(F)cc3)cc2[C@H]2[C@H](CCN2C(=O)Nc2ccc(F)cc2)[C@H]1CO	> 50 µM (inactive)

Compound	IC90
CN1c2ccc(-c3cccc(F)c3)cc2[C@H]2[C@H](CCN2C(=O)CCCCCCC(=O)O)[C@H]1CO	> 50 µM (inactive)
CCCCCCCC(=O)N1CC[C@@H]2[C@@H](CO)N(C)c3ccc(-c4cccc(F)c4)cc3[C@@H]21	> 50 µM (inactive)
CC(=O)c1ccc(N2CCN(C(=O)c3ccc4c(c3)OCO4)[C@H](C)C2)cc1	> 50 µM (inactive)
COc1ccccc1NC(=O)N1CC[C@@H]2[C@@H](CO)N(C)c3ccc(-c4cccc(F)c4)cc3[C@@H]21	> 50 µM (inactive)
CN1c2ccc(-c3ccc(F)cc3)cc2[C@H]2[C@H](CCN2C(=O)Cc2ccccn2)[C@H]1CO	> 50 µM (inactive)
CN1c2ccc(-c3cccc(F)c3)cc2[C@H]2[C@H](CCN2C(=O)Nc2ccccc2F)[C@H]1CO	> 50 µM (inactive)
CN1c2ccc(-c3cccc(F)c3)cc2[C@H]2[C@H](CCN2C(=O)Cc2cccnc2)[C@H]1CO	> 50 µM (inactive)
CC(=O)c1ccc(N2CCN(C(=O)c3ccc4c(c3)OCO4)CC2)cc1	> 50 µM (inactive)
CN1c2ccc(-c3ccc(F)cc3)cc2[C@H]2[C@H](CCN2C(=O)Cc2cccnc2)[C@H]1CO	> 50 µM (inactive)
CC(=O)c1ccc(N2CCN(C(=O)c3ccccc3Cl)CC2)cc1	> 50 µM (inactive)
COc1ccccc1C(=O)N1CCN(c2ccc(C(C)=O)cc2)CC1	> 50 µM (inactive)
CC(C)NC(=O)N1CC[C@@H]2[C@@H](CO)N(C)c3ccc(-c4ccc(F)cc4)cc3[C@@H]21	> 50 µM (inactive)
COCC(=O)N1CC[C@@H]2[C@@H](CO)N(C)c3ccc(-c4cccc(F)c4)cc3[C@@H]21	> 50 µM (inactive)
CN1c2ccc(-c3cccc(F)c3)cc2[C@@H]2[C@@H](CCN2C(=O)c2ccc3c(c2)OCO3)[C@@H]1CO	> 50 µM (inactive)
CC(=O)c1ccc(N2CCN(C(=O)c3ccccc3F)CC2)cc1	> 50 µM (inactive)
CNS(=O)(=O)c1ccc(N2CCN(C(=O)c3ccc4c(c3)OCO4)CC2)cc1	> 50 µM (inactive)
CN1c2ccc(-c3cccc(F)c3)cc2[C@@H]2[C@@H](CCN2C(=O)c2ccc3c(c2)OCO3)[C@H]1CO	> 50 µM (inactive)
